Reference: US20070129344A1, “Bicyclic 6-alkylidene-penem beta-lactamase inhibitors and beta-lactam antibiotic combination: a broad spectrum antibiotic” (priority 2005, published 2007)

Tests used:
[1] = system: E. coli ATCC 25922 (none); test: MIC microbroth dilution; β-lactamase class none; assay type: cell-based; conditions: E. coli ATCC 25922; Cefepime + 4 ug/ml Compound 1
Method: (§1) The in vitro activities of the antibiotics were determined by the microbroth dilution method as recommended by the National Committee for Clinical Laboratory Standards (NCCLS). (NCCLS. 2000. Methods for Dilution Antimicrobial Susceptibility Tests for Bacteria That Grow Aerobically; Approved Standards: M7-A5, vol. 19. National Committee for Clinical Laboratory Standards, Villanova, Pa.). Mueller-Hinton II broth (MHBII)(BBL Cockeysville, Md.), was used for the testing procedure. […]. The plates were incubated for 18-22 hours at 35° C. in ambient air.

E. coli GC 2804 (imp) = test: MIC microbroth dilution; β-lactamase class none; assay type: cell-based; conditions: Cefepime + 4 ug/ml Compound 1
Method: as §1

E. coli GC 2844 (none) = test: MIC microbroth dilution; β-lactamase class none; assay type: cell-based; conditions: Cefepime + 4 ug/ml Compound 1
Method: as §1

E. coli GC 2847 (TEM-1) = test: MIC microbroth dilution; β-lactamase class A; assay type: cell-based; conditions: Cefepime + 4 ug/ml Compound 1
Method: as §1

K. pn GC 1510 (TEM-10) = test: MIC microbroth dilution; β-lactamase class A (ESBL); assay type: cell-based, K. pneumoniae; conditions: Cefepime + 4 ug/ml Compound 1
Method: as §1

K. pn GC 1516 (TEM-26) = test: as above; assay type: cell-based, K. pneumoniae; conditions: Cefepime + 4 ug/ml Compound 1
Method: as §1

K. pn GC 1830 (SHV-2) = test: as above; assay type: cell-based, K. pneumoniae; conditions: Cefepime + 4 ug/ml Compound 1
Method: as §1

K. pn GC 1832 (SHV-4) = test: as above; assay type: cell-based, K. pneumoniae; conditions: Cefepime + 4 ug/ml Compound 1
Method: as §1

[2] = system: K. pn GC 1507 (TEM-9 + SHV-1); test: MIC microbroth dilution; β-lactamase class A, A (ESBL); assay type: cell-based, K. pneumoniae; conditions: Cefepime + 4 ug/ml Compound 1
Method: as §1

[3] = system: K. pn GC 1554 (TEM-1 + TEM-26 + SHV-1); test: as above; assay type: cell-based, K. pneumoniae; conditions: Cefepime + 4 ug/ml Compound 1
Method: as §1

[4] = system: K. pn GC 1963 (TEM-10 + SHV-1 + SHV-ESBL); test: as above; assay type: cell-based, K. pneumoniae; conditions: Cefepime + 4 ug/ml Compound 1
Method: as §1

[5] = system: K. pn GC 2006 (TEM-10 + SHV-1); test: as above; assay type: cell-based, K. pneumoniae; conditions: Cefepime + 4 ug/ml Compound 1
Method: as §1

[6] = system: K. pn GC 3057 (CAZ-R; P/T-R); test: as above; assay type: cell-based, K. pneumoniae; conditions: Cefepime + 4 ug/ml Compound 1
Method: as §1

[7] = system: K. pn GC 6488 (TEM-1 + SHV-5 + SHV-7); test: as above; assay type: cell-based, K. pneumoniae; conditions: Cefepime + 4 ug/ml Compound 1
Method: as §1

[8] = system: K. pn GC 6494 (TEM-1 + SHV-5); test: as above; assay type: cell-based, K. pneumoniae; conditions: Cefepime + 4 ug/ml Compound 1
Method: as §1

[9] = system: K. pn GC 6651 (TEM-1 + SHV-1 + SHV-5); test: as above; assay type: cell-based, K. pneumoniae; conditions: Cefepime + 4 ug/ml Compound 1
Method: as §1

[10] = system: K. pn GC 6657 (TEM-1 + SHV-27); test: as above; assay type: cell-based, K. pneumoniae; conditions: Cefepime + 4 ug/ml Compound 1
Method: as §1

[11] = system: K. pneumoniae GC 7632 TEM-1 KPC-2, SHV-7, SHV-12; test: MIC microbroth dilution; β-lactamase class A, A (Cb'ase), A (ESBL); assay type: cell-based; conditions: Cefepime + 4 ug/ml Compound 1
Method: as §1

E. cloacae GC 1475 (P99) = test: MIC microbroth dilution; β-lactamase class C; assay type: cell-based; conditions: Cefepime + 4 ug/ml Compound 1
Method: as §1

[12] = system: E. cloacae GC 6991 (AmpC); test: MIC microbroth dilution; β-lactamase class C; assay type: cell-based; conditions: Cefepime + 4 ug/ml Compound 1
Method: as §1

E. coli GC 2894 (AmpC) = test: MIC microbroth dilution; β-lactamase class C; assay type: cell-based; conditions: Cefepime + 4 ug/ml Compound 1
Method: as §1

E. coli GC 6539 CMY-2 = test: MIC microbroth dilution; β-lactamase class C; assay type: cell-based; conditions: Cefepime + 4 ug/ml Compound 1
Method: as §1

[13] = system: P. aeruginosa GC 1763 AmpC-inducible; test: MIC microbroth dilution; β-lactamase class C; assay type: cell-based; conditions: Cefepime + 4 ug/ml Compound 1
Method: as §1

[14] = system: S. marcescens GC 4132 (AmpC); test: MIC microbroth dilution; β-lactamase class C; assay type: cell-based; conditions: Cefepime + 4 ug/ml Compound 1
Method: as §1

[15] = system: P. aeruginosa PT 8411 PTZ-R; test: MIC microbroth dilution; assay type: cell-based; conditions: Cefepime + 4 ug/ml Compound 1
Method: as §1

[16] = system: P. aeruginosa PT 8503 PTZ-R; test: MIC microbroth dilution; assay type: cell-based; conditions: Cefepime + 4 ug/ml Compound 1
Method: as §1

[17] = system: P. aeruginosa PT 9236 PTZ-R; test: MIC microbroth dilution; assay type: cell-based; conditions: Cefepime + 4 ug/ml Compound 1
Method: as §1

[18] = system: P. aeruginosa PT 9587 PTZ-R; test: MIC microbroth dilution; assay type: cell-based; conditions: Cefepime + 4 ug/ml Compound 1
Method: as §1

[19] = system: K. pn GC 3104 (MIR-1 + TEM-1); test: MIC microbroth dilution; β-lactamase class A, C; assay type: cell-based, K. pneumoniae; conditions: Cefepime + 4 ug/ml Compound 1
Method: as §1

[20] = system: K. pn GC 6655 (TEM-1 + ACT-1); test: MIC microbroth dilution; β-lactamase class A, C; assay type: cell-based, K. pneumoniae; conditions: Cefepime + 4 ug/ml Compound 1
Method: as §1

[21] = system: E. coli GAR 5929 TEM, OXA, Act-1, CTX (By PCR only); test: MIC microbroth dilution; β-lactamase class A, C, D; assay type: cell-based; conditions: Cefepime + 4 ug/ml Compound 1
Method: as §1

[22] = system: A. baumannii GC 6660 IMI-R; test: MIC microbroth dilution; class PBP (penicillin binding protein); assay type: cell-based; conditions: Cefepime + 4 ug/ml Compound 1
Method: as §1

[23] = system: A. baumannii GC 6661 IMI-R; test: as above; assay type: cell-based; conditions: Cefepime + 4 ug/ml Compound 1
Method: as §1

[24] = system: A. baumannii GC 6662 IMI-R; test: as above; assay type: cell-based; conditions: Cefepime + 4 ug/ml Compound 1
Method: as §1

O=C([O-])C1=CS[C@@H]2/C(=C\c3cn4c(n3)CCC4)C(=O)N12.[Na+] [Compound 1, (5R), (6Z)-6-(6,7-Dihydro-5H-pyrrolo[1,2-a]imidazol-2-ylmethylene)-7-oxo-4-thia-1-aza-bicyclo[3.2.0]hept-2-ene-2-carboxylic Acid, Sodium Salt]
MIC [1]: 0.03 mg/L
MIC (E. coli GC 2804 (imp)): <0.015 mg/L
MIC (E. coli GC 2844 (none)): 0.06 mg/L
MIC (E. coli GC 2847 (TEM-1)): 0.06 mg/L
MIC (K. pn GC 1510 (TEM-10)): 0.06 mg/L
MIC (K. pn GC 1516 (TEM-26)): 0.25 mg/L
MIC (K. pn GC 1830 (SHV-2)): 0.03 mg/L
MIC (K. pn GC 1832 (SHV-4)): 0.06 mg/L
MIC [2]: 0.12 mg/L
MIC [3]: 0.25 mg/L
MIC [4]: 0.12 mg/L
MIC [5]: 0.12 mg/L
MIC [6]: 0.12 mg/L
MIC [7]: 1 mg/L
MIC [8]: 0.12 mg/L
MIC [9]: 0.12 mg/L
MIC [10]: 0.12 mg/L
MIC [11]: 16 mg/L
MIC (E. cloacae GC 1475 (P99)): 0.12 mg/L
MIC [12]: 0.50 mg/L
MIC (E. coli GC 2894 (AmpC)): 0.06 mg/L
MIC (E. coli GC 6539 CMY-2): 0.06 mg/L
MIC [13]: 1 mg/L
MIC [14]: 0.12 mg/L
MIC [15]: 4 mg/L
MIC [16]: 2 mg/L
MIC [17]: 16 mg/L
MIC [18]: 2 mg/L
MIC [19]: 0.50 mg/L
MIC [20]: 0.12 mg/L
MIC [21]: 0.06 mg/L
MIC [22]: >16 mg/L
MIC [23]: 16 mg/L
MIC [24]: >16 mg/L
